Laboratory results published in US7781565B2 (priority 2006, dated 2010).
Entries after “also recorded” stand apart in the source; their conditions may differ.

tested on: NCI-60 cell lines; assay type: cell-based, human

| Substance | Cell Line the peptide is associated with (peptide recovered from phage library selection on this NCI-60 cell line) | Cell Line (NCI-60 cell line the peptide is associated with) | Cell Line (NCI-60 cell line the peptide and its motif are associated with) | Cell Line with which the peptide (and its tripeptide motif) is associated |
| --- | --- | --- | --- | --- |
| ELRRLLS | TK-10 Renal |  |  |  |
| LAIRGLG |  | SW620-Colon |  |  |
| LRIARGV |  | COLO-205-Colon |  |  |
| FAGYGVL |  | SNB-19 CNS; also recorded: SF-539 CNS |  |  |
| RAGRGFE |  |  | UACC62 Melanoma |  |
| LVSSSEP |  |  |  | HL-60-Leukemia |
| GGASLTQ |  | SF-295 CNS |  |  |
| GRVVGEA |  |  |  | H322-Lung |
| GAGSSVW | CAIK-1 Renal |  |  |  |
| IAGLAVV |  | SNB-75 CNS |  |  |
| GLRLGVT |  | HT-29 Colon |  |  |
| GYARGSG | RXF393 Renal |  |  |  |
| FEDLLSL |  | MALME-3M Melanoma |  |  |
| TRASRRG |  | SNB-75 CNS |  |  |
| CPGSGII |  | LOX-IMVI Melanoma |  |  |
| RASCVWR |  |  | DU-145 Prostate |  |
| HGRVHRL |  |  |  | H23-Lung |
| RGRGSTL | MDA-MB-435-Breast |  |  |  |
| GWTMAAS | TK-10 Renal |  |  |  |
| VRAVCLM |  | SNB-75 CNS |  |  |
| YSGRLVM |  | SNB-75 CNS |  |  |
| DWVGVLM |  |  | UACC62 Melanoma |  |
| FRAASLL | MDA-MB-231 Breast |  |  |  |
| RRHGLLS |  |  |  | K-562-Leukemia |
| HAGSRAS |  |  | IGROV1 Ovarian |  |
| FDRGSLT |  | SF-295 CNS |  |  |

| Substance | Cell Line the peptide is associated with (peptide recovered from phage library selection on this NCI-60 cell line) | Cell Line (NCI-60 cell line the peptide is associated with) | Cell Line (NCI-60 cell line the peptide and its motif are associated with) | Cell Line with which the peptide (and its tripeptide motif) is associated |
| --- | --- | --- | --- | --- |
| MPGSSRP | RXF393 Renal |  |  |  |
| SLRGVRV |  |  | UACC62 Melanoma |  |
| SRAVIRL |  |  | OVCAR-5 Ovarian |  |
| GDCGLVG |  |  | PC3 Prostate |  |
| SQSGGRH |  |  |  | Molt-4-Leukemia |
| GSVVSSW | ACHN Renal |  |  |  |
| LRGGLVS |  |  |  | EKVX-Lung |
| TREGGLD |  | KM-12C Colon |  |  |
| NVGGGRF | NCI/ADR-RES Breast |  |  |  |
| GSLGVSL |  |  |  | H226-Lung |
| GRYSLRS |  |  |  | RPMI-8226-Leukemia |
| PGVLREP | A498 Renal |  |  |  |
| VPSGSVR | NCI/ADR-RES Breast |  |  |  |
| IGGRWVV |  |  | SK-OV-3-3 Ovarian |  |
| PGSSFVG |  | HCT-15 Colon |  |  |
| TGLLRLY | RXF393 Renal |  |  |  |
| LELLSVV |  | SNB-75 CNS |  |  |
| GSARGML |  |  |  | SR Leukemia |
| CRGSIGA | BT-549 Breast |  |  |  |
| EPDGVRS |  |  |  | CCRF-CEM Leukemia |
| RAHGLVC | RXF393 Renal |  |  |  |
| GSVLGAL |  | HT-29 Colon |  |  |
| FIAGGVG | ACHN Renal |  |  |  |
| VAVGVRS | HS 578 T Breast |  |  |  |
| LGVREVG | HS 578 T Breast |  |  |  |
| HAAVEPS |  |  | OVCAR-5 Ovarian |  |
